# From paper PMC10385850, “Modified Hederagenin Derivatives Demonstrate Ex Vivo Anthelmintic Activity against Fasciola hepatica” (Pharmaceutics, 2023)
# “Also recorded” adds a separate entry of the source.
# Key:
# Type in all cases: cell-based, Fasciola hepatica
# [1] = test system: F. hepatica newly excysted juveniles (NEJs), Italian strain; assay: Ex vivo screen against newly excysted juveniles (NEJs), phenotype and motility scoring; conditions: 10 µM; for Average motility of 25 NEJs with 95% CI, 24 hours / Average motility of 25 NEJs with 95% CI, 48 hours / Average motility of 25 NEJs with 95% CI, 72 hours: motility score 1 good/normal to 5 no movement; for Average phenotype of 25 NEJs with 95% CI, 24 hours / Average phenotype of 25 NEJs with 95% CI, 48 hours / Average phenotype of 25 NEJs with 95% CI, 72 hours: ultrastructure score 1 normal to 6 dead or dissolved; for Activity against NEJs (first screen), in words: 72 h co-culture
# Experimental: […] The NEJs were excysted from metacercariae and assayed at 10 μM (in 0.1% DMSO) final concentration alongside negative (0.1% DMSO) and positive (10 μM TCBZ, in 0.1% DMSO) controls as previously described. The MC and IVL compound series were screened separately.
# The motility (1—good/normal; 2—moderate; 3—low; 4—very little; 5—no movement) and phenotypic (ultrastructural changes) scores were noted according to a previously described scoring matrix (Figure S1 and Table S2).
# [2] = test system: wild strain adult F. hepatica; assay: Ex vivo motility assay on adult liver flukes (wild strain); conditions: 40 µM; for Effect on wild strain adult fluke motility, in words: 72 h; for Average motility of 4 parasites with 95% CI at 72 hour time point: wild strain adult flukes, score 1 good/normal to 6 no movement or dead
# Experimental: Due to the high number of active molecules and a shortage of Italian strain adult liver flukes, the eleven hit compounds were screened for 72 h at 40 µM (in 0.4% DMSO) on wild strain adult F. hepatica (n = 4/condition) of unknown provenance (Table S3). The protocol for culturing and scoring (motility) the activity of these compounds was previously described (1—good/normal; 2—moderate; 3—resting (less than 10 s pulses of body and head), 4—apathetic (less than 2 s pulses of body and head), 5—paralysis and 6–no movement or dead worms). Six compounds were deemed active in these assays and were selected for further screening.
# [3] = test system: immature F. hepatica flukes (Italian strain); assay: Ex vivo motility assay on immature liver flukes (Italian strain), single concentration and dose response; conditions: 40 µM
# Experimental: The six selected compounds (at 40 µM in 0.4% DMSO) were evaluated on immature flukes (n = 4/condition) at 24, 48 and 72 h (Table S4). The protocol for culturing and scoring (motility) of these life stages have been previously described. Due to restricted numbers of immature worms, a dose response assay was conducted only for MC042. Here, immature worms (n = 2/concentration tested) were screened against descending concentrations of MC042 (40 µM, 13.3 µM and 4.4 µM); motility scores were recorded at 24, 48 and 72 h (Table S5). The scoring pattern used is identical to that described for NEJs.
SMILES,"Average motility of 25 NEJs with 95% CI, 24 hours [1]","Average phenotype of 25 NEJs with 95% CI, 24 hours [1]","Average motility of 25 NEJs with 95% CI, 48 hours [1]","Average phenotype of 25 NEJs with 95% CI, 48 hours [1]","Average motility of 25 NEJs with 95% CI, 72 hours [1]","Average phenotype of 25 NEJs with 95% CI, 72 hours [1]","Activity against NEJs (first screen), in words [1]","Effect on wild strain adult fluke motility, in words [2]",Average motility of 4 parasites with 95% CI at 72 hour time point [2],"Average motility of 4 parasites with 95% CI at 24 hour time point ([3]; 24 h, immature flukes, score 1 normal to 5 no movement or death)","Average motility of 4 parasites with 95% CI at 48 hour time point ([3]; 48 h, immature flukes, score 1 to 5)","Average motility of 4 parasites with 95% CI at 72 hour time point ([3]; 72 h, immature flukes, score 1 to 5)","Effect on immature fluke motility, in words ([3]; by 72 h)"
"CC1(C)CC[C@]2(NC(=O)N3CCCC3)CC[C@]3(C)C(=CCC4[C@@]5(C)CCC6OC(C)(C)OC[C@@]6(C)C5CC[C@]43C)C2C1 (stereo partly drawn) [MC023, N-((4aR,6aR,6bS,8aS,14bR)-2,2,4a,6a,6b,11,11,14b-Octamethyl-4a,5,6,6a,6b,7,8,9,10,11,12,12a,14,14a, 14b,15,16,16a-octadecahydro-4H-piceno[3,4-d][1,3]dioxin-8a(4bH)-yl)-pyrolidine-1-carboxamide]",5.00 (5.0;5.0),5.00 (5.0;5.0),5.00 (5.0;5.0),5.00 (5.0;5.0),5.00 (5.0;5.0),5.00 (5.0;5.0),maximal alterations to both phenotype/ultrastructure and motility,less severe motility defects,4.75 (3.5;5.9),,,,
"CC1(C)CC[C@]2(NC(N)=O)CC[C@]3(C)C(=CCC4[C@@]5(C)CCC6OC(C)(C)OC[C@@]6(C)C5CC[C@]43C)C2C1 (stereo partly drawn) [MC024, 1-((4aR,6aR,6bS,8aS,14bR)-2,2,4a,6a,6b,11,11,14b-Octamethyl-4a,5,6,6a,6b,7,8,9,10,11, 12, 12a,14,14a, 14b,15,16,16a-octadecahydro-4H-piceno[3,4-d][1,3]dioxin-8a(4bH)-yl)urea]",5.00 (5.0;5.0),5.00 (5.0;5.0),5.00 (5.0;5.0),5.00 (5.0;5.0),5.00 (5.0;5.0),5.00 (5.0;5.0),maximal alterations to both phenotype/ultrastructure and motility,less severe motility defects,4.25 (3.2;5.7),,,,
"CC(=O)OC[C@]12CCC(C)(C)CC1C1=CCC3[C@@]4(C)CC[C@H](O)[C@@](C)(CO)C4CC[C@@]3(C)[C@]1(C)CC2 (stereo partly drawn) [MC037, ((4aS,6aS,6bR,9R,10S,12aR)-10-Hydroxy-9-(hydroxymethyl)-2,2,6a,6b,9,12a-hexamethyl-1,3,4,5,6,6a, 6b,7,8,8a,9,10,11,12,12a,12b,13,14b-octadecahydropicen-4a(2H)-yl)methyl acetate]",5.00 (5.0;5.0),6.00 (6.0;6.0),5.00 (5.0;5.0),6.00 (6.0;6.0),5.00 (5.0;5.0),6.00 (6.0;6.0),maximal alterations to both phenotype/ultrastructure and motility,less severe motility defects,3.25 (2;4.4),,,,
"CCCCCCCCCCCCCCCC(=O)OC[C@]12CCC(C)(C)CC1C1=CCC3[C@@]4(C)CC[C@H](O)[C@@](C)(CO)C4CC[C@@]3(C)[C@]1(C)CC2 (stereo partly drawn) [MC038, ((4aS,6aS,6bR,9R,10S,12aR)-10-Hydroxy-9-(hydroxymethyl)-2,2,6a,6b,9,12a-hexamethyl-1,3,4,5,6,6a, 6b,7,8,8a,9,10,11,12,12a,12b,13,14b-octadecahydropicen-4a(2H)-yl)methyl palmitate]",2.96 (2.3;3.5),2.32 (1.7;2.9),2.80 (2.2;3.3),2.92 (2.1;3.6),3.32 (2.7;3.8),3.48 (2.7;4.2),,,,,,,
"COC(=O)[C@H](Cc1c[nH]cn1)NC(=O)N[C@]12CCC(C)(C)CC1C1=CCC3[C@@]4(C)CC[C@@H]5OC(C)(C)OC[C@@]5(C)C4CC[C@@]3(C)[C@]1(C)CC2 (stereo partly drawn) [MC048, Methyl (((4aR,6aR,6bS,8aS,14bR,16aS)-2,2,4a,6a,6b,11,11,14b-octamethyl-4a,5,6,6a,6b,7,8,9,10,11,12, 12a,14,14a,14b,15,16,16a-octadecahydro-4H-piceno[3,4-d][1,3]dioxin-8a(4bH)-yl)carbamoyl)-L-histidinate]",1.40 (1.2;1.5),1.44 (1.2;1.6),,,1.96 (1.8;2),1.88 (1.7;2),,,,,,,
CC(=O)OCC1(C)C(OC(C)=O)CCC2(C)C1CCC1(C)C2CC=C2C3CC(C)(C)CCC3(NC(=O)N3CCCC3)CCC21C (stereo not drawn) [MC056],5.00 (5.0;5.0),6.00 (6.0;6.0),5.00 (5.0;5.0),6.00 (6.0;6.0),5.00 (5.0;5.0),6.00 (6.0;6.0),maximal alterations to both phenotype/ultrastructure and motility,less severe motility defects; also recorded: limited activity,4.25 (3.3;5.1),,,,
"CC(=O)OC[C@@]1(C)C2CC[C@]3(C)C(CC=C4C5CC(C)(C)CC[C@]5(NC(=O)N5CCCC5)CC[C@]43C)[C@@]2(C)CC[C@@H]1O (stereo partly drawn) [MC057, ((3S,4R,6aR,6bS,8aS,14bR)-3-Hydroxy-4,6a,6b,11,11,14b-hexamethyl-8a-(pyrrolidine-1-carbox-amido)-1,2,3,4,4a,5,6,6a,6b,7,8,8a,9,10,11,12,12a,14,14a, 14b-icosahydropicen-4-yl)-methyl acetate]",5.00 (5.0;5.0),6.00 (6.0;6.0),5.00 (5.0;5.0),6.00 (6.0;6.0),5.00 (5.0;5.0),6.00 (6.0;6.0),maximal alterations to both phenotype/ultrastructure and motility,partial paralysis,5.00 (5.0;5.0),3.50 (2.5;4.4),4.25 (3.3;5.1),4.50 (3.5;5.4),least active in this series
"CN(C[C@H](O)[C@@H](O)[C@H](O)[C@H](O)CO)C(=O)N[C@]12CCC(C)(C)CC1C1=CCC3[C@@]4(C)CC[C@@H]5OC(C)(C)OC[C@@]5(C)C4CC[C@@]3(C)[C@]1(C)CC2 (stereo partly drawn) [MC059, 1-Methyl-3-((4aR,6aR,6bS,8aS,14bR,16aS)-2,2,4a,6a,6b,11,11,14b-octamethyl-4a,5,6,6a, 6b,7,8,9,10,11, 12,12a,14,14a,14b,15,16,16a-octadecahydro-4H-piceno[3,4-d][1,3]dioxin-8a(4bH)-yl)-1-((2S,3R,4R,5R)-2,3,4,5,6-pentahydroxyhexyl)urea]",2.84 (2.3;3.3),2.68 (1.9;3.3),3.20 (2.7;3.6),3.04 (2.3;3.7),3.20 (2.6;3.7),3.88 (3.2;4.4),none reached the level required,,,,,,
